From patent US20260109713A1, “SIRTUIN MODULATING COMPOUNDS, INCLUDING SIRTUIN ACTIVATING COMPOUNDS, AND APPLICATIONS THEREOF” (CODAGEN BIOSCIENCES, INC., priority 2022, published 2026)

Legend:
Assay type in all cases: biochemical
[1] = biological target: T1, hSIRT3 (Homo sapiens, UniProt Q9NTG7); assay: Fluorescence-based SIRT3 deacetylation assay using FdL2 peptide, steady state (Conditions I); conditions: triplicate
T1 construct: His-tag; purchased Enzo Life Sciences (Farmingdale, NY)
T1 sequence (Q9NTG7 102-399): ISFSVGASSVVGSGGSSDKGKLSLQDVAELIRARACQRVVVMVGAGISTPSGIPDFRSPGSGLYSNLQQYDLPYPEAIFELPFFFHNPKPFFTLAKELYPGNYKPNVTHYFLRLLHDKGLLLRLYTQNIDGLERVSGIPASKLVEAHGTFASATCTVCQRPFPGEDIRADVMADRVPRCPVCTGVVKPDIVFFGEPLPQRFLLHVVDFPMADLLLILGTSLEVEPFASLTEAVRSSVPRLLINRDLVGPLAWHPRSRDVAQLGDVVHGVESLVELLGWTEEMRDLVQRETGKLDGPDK
Protocol: FIG. 4. Effect of top ranked hit compounds on Sirt3 deacetylation activity.
The 6 top ranked compounds from DEL screening were tested modulation effect of SIRT3 using fluorescence-based assay (FIG. 4).
The enzymatic reactions were carried out similar to as described above. The reaction was terminated by adding the 1× developer 2 mM NAM solution and measured the fluorescence on TECAN microplate reader. The raw data were fitted to the defined model equations using GraphPad Prism (GraphPad Software, Inc, CA).

[2] = biological target: T2, hSIRT3 102-399 (Homo sapiens, UniProt Q9NTG7); assay: HPLC assay of hSIRT3 102-399 deacetylation of MnSOD peptide, Conditions I (steady state): 1000 μM NAD+, 50 μM MnSOD peptide; conditions: for Conditions I, Effect: Conditions I (steady state), HPLC/FdL; for Activity test, Conditions I, HPLC: Conditions I: 1000 μM NAD+, 50 μM MnSOD peptide, 50 μM compound, 30 min, triplicate, same values as % control in Table 3
T2 construct: His-tag; purchased Enzo Life Sciences (Farmingdale, NY)
T2 sequence (Q9NTG7 102-399): T1 sequence (Q9NTG7 102-399)
Protocol: […] The peptide product and substrate were resolved using HPLC (reversed-phase C18 HPLC Column). Solvent A was composed of 90% HPLC grade water and 10% acetonitrile with 0.05% (v/v) TFA. Solvent B was composed of acetonitrile with 0.02% (v/v) TFA. […] Then returned to the starting conditions (0% B) within 5 min. Solvent A percentage (100%) was maintained at 100% for 5 additional minutes (36 min total run time).

[3] = biological target: T2, hSIRT3 102-399; assay: HPLC assay of hSIRT3 102-399 deacetylation of MnSOD peptide, Conditions II (non-steady state): 50 μM NAD+, 600 μM peptide; conditions: for Conditions II, Effect: Conditions II (non-steady state); for Activity test, Conditions II, HPLC: Conditions II: 50 μM NAD+, 600 μM peptide, 10 μM compound, triplicate
Protocol: FIG. 5. Sirt3 activation by top ranked hit compounds.
The deacetylation activity of SIRT3 was detected in the presence of 10 μM compound of AA8AC40 under non-steady state condition (FIG. 5) using HPLC-based assay. […] The test compound is expected to experience three phases (presteady state, steady-state, and post steady state) during the enzymatic reaction. The pre and post-steady state can be considered as non-steady state, in which the enzyme concentration vs. NAD^+ substrate concentration ratio is high. Depending on the initial ratio of enzyme to limiting substrate in the system (and the ratio of enzyme to test compound concentration), the net effect of test compound over the course of the reaction can be either inhibitory or activating, with activation occurring if this ratio is above a threshold value.
Enzymatic reactions included either 1000 μM NAD^+ and 50 μM MnSOD peptide (Conditions I) or 50 μM NAD^+ and 600 μM peptide substrate (Conditions II) in presence of hit compounds (50 μM (Conditions I) or 10 μM (Conditions II)), in a HDAC buffer (50 mM TRIS-HCl, pH 8.0, containing 137 mM sodium chloride, 2.7 mM potassium chloride, and 1 mM magnesium chloride) dimethyl sulfoxide solution 95/5. […] The reaction was terminated by adding a stopping solution (final concentration of 2% TFA, 5 mM Nicotinamide). The peptide product and substrate were resolved using HPLC (reversed-phase C18 HPLC Column). Solvent A was composed of 90% HPLC grade water and 10% acetonitrile with 0.05% (v/v) TFA. Solvent B was composed of acetonitrile with 0.02% (v/v) TFA. […] Then returned to the starting conditions (0% B) within 5 min. Solvent A percentage (100%) was maintained at 100% for 5 additional minutes (36 min total run time).

| Activity test, Conditions I, FdL [1] | Conditions I, Effect [2] | Activity test, Conditions I, HPLC [2] | % Control in vitro modulation, Steady-state ([2]; steady state, 10 μM modulator) | Conditions II, Effect [3] | Activity test, Conditions II, HPLC [3] | % Control in vitro modulation, Non-Steady state ([3]; non-steady state, 10 μM modulator) | SMILES |
| --- | --- | --- | --- | --- | --- | --- | --- |
| 88.1 | Inhibitor | 98.2 | 98.2 % Control | Slight Activator | 103.1 | 103.1 % Control | O=C1NCCN(C(=O)c2cccc(-c3cnn4ccccc34)c2)C1CCO (stereo not drawn) [FIG. 227] |
| 101.2 | Slight Activator | 106.7 | – | Activator | 108.1 | – | Nc1nc2n(n1)C(c1ccc(OCc3ccccc3)cc1)CC(c1ccc(Cl)cc1)N2 (stereo not drawn) [FIG. 14] |
